For this data set the following is noted: Liquid, High pressure cell.

Numbers after ± are expanded uncertainties.

As usually defined, the vapor or sublimation pressure is the equilibrium pressure above the liquid or solid. With `CO` [methanol], the “vapor or sublimation pressure” value reads like this: (353.1 K) 181 ± 3 kPa; (393.1 K) 635 ± 3 kPa.
